In patent US12421489B2, “Biological control of plant pathogenic microorganisms” (priority 2016, dated 2025):

Key:
[1] = tested on: Botrytis spp.; experiment: Cherry inoculation assays 2 and 4: Botrytis spp. fruit rot of ‘Sweet Valentine’ cherries, dip treatment; format: in vivo; conditions: Assay 2, cherries, cumulative after 13 days; nil 35%; not significantly reduced (P>0.05)
Description: Fruit-based screening assays were conducted in laboratories at the Plant and Food Research Ruakura Research Centre, Hamilton, New Zealand (PFR). PFR assays focused on dip treatment application of YBCA5 and fungicide controls.
Fruit for Monilinia fructicola and Botrytis spp. inoculation assays were carried out on sweet cherries (Prunus avium ‘Sweet Valentine’) that were picked at the harvest mature stage and sourced from the PFR Clyde Research Orchard in Central Otago on 8 Jan. 2016 for fruit based assays 1 and 2. A second harvest was carried out on 13 Jan. 2016 for fruit based assays 3 and 4.
Each cherry was then subjected to a double wash process. Wash one consisted of 10 minutes in tap water on a rotary shaker (110 rpm) followed by a five minute wash in SDW (Wash 2). […]
A Botrytis spp. culture (isolate code 09-2), which had been originally isolated from an infected kiwifruit located in the Bay of Plenty region during the 2000s, was used for the spray inoculation assays included in this section carried out on cherries. […] This stock suspension was then filtered using a 70 μm cell strainer (70 μm mesh) to remove mycelial fragments, the concentration determined using a haemocytometer and then adjusted, by dilution with SDW+Tw 80 (0.01% v/v) to a final concentration of 1×10^5 conidia/mL. […]

[2] = tested on: Botrytis spp.; experiment: Assay 8: wound protection of ‘Hongyang’ kiwifruit, Botrytis spp.; format: in vivo; conditions: wounded ‘Hongyang’ kiwifruit, treatment 24 h before Botrytis spp., 6 days incubation
Description: The kiwifruit ‘Hongyang’-based screening assays (assays 8 and 9) were conducted in laboratories at the Plant and Food Research Ruakura Research Centre, Hamilton, New Zealand (PFR). PFR assays focused on wound application of YBCA5 treatment, a commercial biological control treatment and a fungicide were used as comparative controls.
The ‘Hongyang’ kiwifruit were sourced from the PFR Riwaka Research Orchard in Motueka on 12 Apr. 2017 for fruit based assays 8 and 9. Penicillium spp. Phomopsis spp., Alternaria spp., Colletotrichum spp., Cryptosporiopsis spp. and Botrytis spp. inoculation assays were carried out on ‘Hongyang’ kiwifruit that were picked at the harvest mature stage. […]
For assays 8 and 9, two sterile paper towels were placed beneath Plix cut-outs, moistened with 40 mL SDW and each fruit placed in disposable lunch boxes (Plix Extra Deep 45/45, containing five Plix fruit cut-outs to prevent fruit from moving), sealed, then placed into large (40 L) plastic bins which were closed to ensure high relative humidity for the first 24 h and incubated on the lab bench at 24° C. […] After 6 days, (Alternaria spp. Botrytis spp., Penicillium spp., Phomopsis spp., Colletotrichum spp.) and 7 days (Cryptosporiopsis spp.), the severity of fungal rot was assessed for each treatment by measuring the lesion length (mm) along the axis of the fruit. […]

CC(C)NC(=O)N1CC(=O)N(c2cc(Cl)cc(Cl)c2)C1=O [iprodione]
incidence of Botrytis spp. fruit rot [1]: 22% | lesion size, comparison between treatments [2]: significantly smaller than the untreated control
